Measured values: patent US4335247A, “Novel nitrosourea derivatives and process for their production” (Kowa Co., Ltd., priority 1980, dated 1982)
Read-outs that look alike come from different tables or passages of the source.

What was measured:
[1] = Acute toxicity (median lethal dose, intraperitoneal); conditions: mouse, in vivo, ip; intraperitoneal injection, ddy mice, Litchfield-Wilcoxon method
Procedure: The median lethal dose (LD50) of each of the test compounds was determined by the Litchfield-Wilcoxon method after the intraperitoneal injection of the compound into ddy mice.

[2] = tested on: P388 cancer cell; assay: Anti-tumor test, P388-inoculated mice (survival effect); type: in vivo; conditions: Mus musculus, P388, ip, intraperitoneal, CDF1 mice; for response vs control in vivo at 12.5 mg/kg / responders at 12.5 mg/kg: 12.5 mg/Kg/day; for response vs control in vivo at 25 mg/kg / responders at 25 mg/kg: 25 mg/Kg/day; for response vs control in vivo at 50 mg/kg / responders at 50 mg/kg: 50 mg/Kg/day
Procedure: Each experimental group was composed of six CDF1 mice. The mice were inoculated intraperitoneally with 10^6 P388 cancer cell, and the test compounds suspended in a gum arabic were administered intraperitoneally to the animals 24 hours and 5 days, respectively, after the inoculation. The survival effect of each of the compounds was expressed by the percentage of the survival days of the treated animals in each group relative to those of the control animals.

[3] = 24 hours and 5 days after inoculation, read-out: Survival Effect T/C
[4] = of six mice, read-out: Cure (converted)
[5] = of six mice, read-out: Tumored Survivors (converted)
[6] = 100 mg/Kg/day, 24 hours and 5 days after inoculation, read-out: Survival Effect T/C

SMILES | LD50 [1] [mg/kg] | response vs control in vivo at 12.5 mg/kg [2, 3] [%] | response vs control in vivo at 25 mg/kg [2, 3] [%] | responders at 25 mg/kg [2, 4] [%] | response vs control in vivo at 50 mg/kg [2, 3] [%] | responders at 50 mg/kg [2, 4] [%] | responders at 50 mg/kg [2, 5] [%] | response vs control in vivo at 6.25 mg/kg ([2]; 6.25 mg/Kg/day, 24 hours and 5 days after inoculation, read-out: Survival Effect T/C) [%] | responders at 25 mg/kg [2, 5] [%] | responders at 12.5 mg/kg [2, 4] [%] | responders at 12.5 mg/kg [2, 5] [%] | response vs control in vivo at 100 mg/kg [2, 6] [%] | responders at 100 mg/kg ([2]; 100 mg/Kg/day, of six mice, read-out: Cure (converted)) [%]
C[C@@H](O)[C@H](NC(=O)N(CCCl)N=O)C(=O)Nc1nncs1 (relative stereo) [L] | 65 | 153 | 93 | 16.7 | 81 | – | – | – | – | – | – | – | –
O=NN(CCCl)C(=O)Nc1nncs1 [A] | 78 | 170 | 173 | – | 172 | – | – | – | – | – | – | – | –
CC(C)[C@H](NC(=O)N(CCCl)N=O)C(=O)O [B] | 72 | – | 230 | – | 297 | 16.7 | 16.7 | – | – | – | – | – | –
CC(C)[C@H](NC(=O)N(CCCl)N=O)C(=O)Nc1nncs1 [D] | 49 | 281 | 291 | 83.3 | – | – | – | 223 | – | – | – | – | –
CC(C)CC(NC(=O)N(CCCl)N=O)C(=O)Nc1nncs1 (stereo not drawn) [E] | 82 | 220 | 303 | 33.3 | 303 | 83.3 | – | – | 16.7 | – | – | – | –
CC(C)C[C@H](NC(=O)N(CCCl)N=O)C(=O)Nc1nncs1 [F] | 85 | 292 | 303 | 50 | – | – | – | – | 33.3 | 16.7 | 16.7 | – | –
CC[C@H](C)[C@H](NC(=O)N(CCCl)N=O)C(=O)Nc1nncs1 [G] | 78 | 247 | 297 | 16.7 | 297 | 50 | 33.3 | – | 50 | 16.7 | – | – | –
CSCC[C@H](NC(=O)N(CCCl)N=O)C(=O)Nc1nncs1 [H] | 67 | 235 | 294 | 50 | 294 | 83.3 | 16.7 | – | 33.3 | 16.7 | – | – | –
O=NN(CCCl)C(=O)N[C@@H](C(=O)Nc1nncs1)c1ccccc1 [I] | 69 | 297 | 297 | 33.3 | 297 | 83.3 | – | – | 33.3 | 33.3 | 16.7 | – | –
O=NN(CCCl)C(=O)N[C@@H](Cc1ccccc1)C(=O)Nc1nncs1 [J] | 74 | 297 | 297 | 83.3 | 297 | 66.7 | 16.7 | – | – | 33.3 | 16.7 | – | –
O=NN(CCCl)C(=O)NC1(C(=O)Nc2nncs2)CCCC1 [K] | 53 | 175 | 176 | – | 176 | – | – | – | – | – | – | – | –
O=NN(CCCl)C(=O)N[C@@H](Cc1c[nH]c2ccccc12)C(=O)Nc1nncs1 [M] | 73 | – | 294 | 83.3 | 294 | 50 | 33.3 | – | – | – | – | 107 | 16.7
CC(C)[C@@H](NC(=O)N(CCCl)N=O)C(=O)Nc1nncs1 [N] | 68 | – | 217 | 16.7 | 99 | 33.3 | – | – | – | – | – | – | –
CC(C)C[C@@H](NC(=O)N(CCCl)N=O)C(=O)Nc1nncs1 [O] | 61 | – | 190 | – | 217 | – | – | – | – | – | – | 188 | –
